Results on six compounds are retold here after PMC3265452 (PLoS Neglected Tropical Diseases, 2012).

Counter-ions that a name gives are not always drawn. Like-named read-outs stand apart in the source and are kept apart here. Some results are limits rather than exact numbers.

Test [1] deals with T1, AaDOP2 (Aedes aegypti, UniProt H6D5H2). The experiment in a line: AaDOP2 antagonist screen of the LOPAC1280 library (HEK-CRELuc-Aadop2 cells, luminescence). Type of test: cell-based. To be noted: for inhibition at 10 µM: read-out: % of the SCH23390 effect (percent inhibition of receptor response relative to the SCH23390 control).
T1 sequence (H6D5H2 1-476): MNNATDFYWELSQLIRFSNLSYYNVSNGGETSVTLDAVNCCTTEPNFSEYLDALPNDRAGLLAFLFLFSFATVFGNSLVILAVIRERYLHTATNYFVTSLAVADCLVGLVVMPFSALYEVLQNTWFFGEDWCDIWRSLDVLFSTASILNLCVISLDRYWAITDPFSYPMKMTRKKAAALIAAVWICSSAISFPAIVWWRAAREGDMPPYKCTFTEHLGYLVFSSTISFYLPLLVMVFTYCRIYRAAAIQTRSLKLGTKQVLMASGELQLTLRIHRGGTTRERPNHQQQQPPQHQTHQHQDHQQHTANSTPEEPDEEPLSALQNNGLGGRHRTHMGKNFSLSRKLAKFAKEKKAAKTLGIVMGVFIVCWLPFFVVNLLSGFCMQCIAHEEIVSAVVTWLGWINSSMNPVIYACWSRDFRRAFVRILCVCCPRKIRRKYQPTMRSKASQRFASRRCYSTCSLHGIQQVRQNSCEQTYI
Test [2] deals with T2, human D1 dopamine receptor (hD1) (Homo sapiens, UniProt P21728).
T2 construct: expressed in transfected cells
T2 sequence (P21728 whole entry): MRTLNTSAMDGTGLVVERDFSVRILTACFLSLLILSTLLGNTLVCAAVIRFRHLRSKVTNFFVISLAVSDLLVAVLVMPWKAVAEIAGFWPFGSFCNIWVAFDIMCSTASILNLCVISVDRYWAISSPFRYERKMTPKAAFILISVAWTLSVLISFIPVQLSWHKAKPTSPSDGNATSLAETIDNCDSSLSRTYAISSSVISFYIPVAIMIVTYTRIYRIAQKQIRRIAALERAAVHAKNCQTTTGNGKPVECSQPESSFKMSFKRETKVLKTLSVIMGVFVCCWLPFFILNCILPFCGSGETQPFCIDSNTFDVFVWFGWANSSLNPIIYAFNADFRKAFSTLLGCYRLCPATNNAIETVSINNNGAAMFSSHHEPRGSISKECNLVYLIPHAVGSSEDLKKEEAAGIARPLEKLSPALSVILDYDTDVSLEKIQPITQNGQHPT
The experiment in a line: cAMP accumulation secondary assay, hD1-expressing cells. Type of test: cell-based.

The test system of test [3] is Ae. aegypti L4-stage larvae (Liverpool strain). The experiment in a line: whole plant or invertebrate. Type of test: in vivo, Aedes aegypti. Particulars: for average mortality: single dose-point 400 µM, 24 hours post-treatment. On the procedure: Single dose-point and dose response in vivo mosquito bioassays were used to assess the toxicity of selected AaDOP2 receptor antagonists identified in the chemical screen. Larvae of Ae. aegypti (Liverpool strain) were reared under standard laboratory conditions on a 12 hr day/night cycle at 75% RH and 28°C, and bioassays were conducted at room temperature (22–24°C). Larvae were transferred from standard rearing trays into six-well tissue culture plates (Corning, Inc. Corning, NY) using a small plastic pipette. Ten L4-stage larvae were included per well, each containing five ml of de-ionized water and the assigned drug concentration. Controls were conducted similarly but lacked a drug treatment. Bioassays employed a double-blind experimental design, and percent mortality was scored 24 hr following administration of drugs. Single dose-point assays were conducted using 400 µM drug and included three biological replicates each consisting of 50–100 larvae. Dose-response assays were conducted using five doses (400, 200, 100, 50, and 25 µM) of the compounds suspended in water, with water alone as a control. Five technical replicates, each including 10 larvae, were performed per dose, and the assay was repeated three times.

The target in test [4] is T1, AaDOP2. Particulars: for Relative fold selectivity for AaDOP2 vs. hD1: from IC50 values at AaDOP2 and hD1.
The target of test [5] is T1, AaDOP2. The experiment in a line: cell-based.
For test [6], the target named is T3, AaDOP1 (Aedes aegypti, UniProt H6D5H1). The experiment in a line: CRELuc reporter dose-response in HEK293 cells stably expressing AaDOP1. In kind it is cell-based.
T3 sequence (H6D5H1 entry or part of it): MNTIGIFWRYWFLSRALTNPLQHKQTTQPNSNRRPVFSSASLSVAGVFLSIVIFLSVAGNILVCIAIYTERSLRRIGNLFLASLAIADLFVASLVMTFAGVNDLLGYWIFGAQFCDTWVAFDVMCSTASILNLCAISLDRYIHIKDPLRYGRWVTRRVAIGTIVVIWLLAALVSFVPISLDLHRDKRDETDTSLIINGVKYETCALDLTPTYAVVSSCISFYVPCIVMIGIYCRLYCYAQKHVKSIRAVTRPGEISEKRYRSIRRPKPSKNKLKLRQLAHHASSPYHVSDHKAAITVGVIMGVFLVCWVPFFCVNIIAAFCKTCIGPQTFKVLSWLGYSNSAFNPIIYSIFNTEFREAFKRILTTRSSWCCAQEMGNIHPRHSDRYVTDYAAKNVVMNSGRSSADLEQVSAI
Test [7] has as its target T1, AaDOP2.
The target of test [8] is T3, AaDOP1. To be noted: single dose of dopamine 10 µM, n = 3.
The target in test [9] is T1, AaDOP2. Particulars: single dose of dopamine 10 µM, n = 3.
The mark [10] stands for this setting: 10 µM SCH23390 in the presence of 1 µM dopamine.

Take `CN(C)CCC=C1c2ccccc2CCc2ccccc21` [Compound 92, Amitriptyline hydrochloride]: the “Compound effect (percent receptor signaling in presence of test compound, relative lux units relative to the SCH23390 control)” value on AaDOP2 [1] was 10. Further, the inhibition at 10 µM at AaDOP2 [1] was found to be 90%. Further, the IC50 in test [2] was found to be 470 ± 49 nM; against AaDOP2 [5] it was 14 ± 3.4 nM. Besides, the LC50 in [3] (Aedes aegypti, 24 h) is 78000 nM. In test [3] (dose-response 25-400 µM, 24 hr), this compound yielded an LC90 of 185000 nM. Also, the average mortality in test [3] amounted to 93%. For the same compound, the “Relative fold selectivity for AaDOP2 vs. hD1” value is on record as 36 fold at AaDOP2 [4] (listed as Amitriptyline) and “more than 30 fold” on AaDOP2 [4] (listed as amitriptyline).
`CN(C)CCC=C1c2ccccc2COc2ccccc21` [Compound 386, Doxepin hydrochloride] showed an average mortality in test [3] of 72%.
For the compound `CN1CCc2cc(Cl)c(O)cc2[C@@H](c2ccccc2)C1` [Compound 446, R(+)-SCH-23390 hydrochloride], the “inhibition of dopamine-mediated stimulation of AaDOP1” value at AaDOP1 [6] (setting [10]) is “robustly inhibited”. The inhibition at 10 µM on AaDOP2 [1] came to 83%. Besides, the “inhibition of dopamine-mediated stimulation of AaDOP2” value at AaDOP2 [7] (setting [10]) is on record as “robustly inhibited”. The compound further came in with a 50% inhibitory concentration (IC50) against AaDOP2 [5] of 1600 ± 73 nM.
`NCCc1ccc(O)c(O)c1` [Compound 603, Dopamine hydrochloride]: the EC50 at AaDOP1 [6] was 3.1 ± 1.1 nM. Further, the figures for the “increase of intracellular cAMP” value at AaDOP1 [8] and on AaDOP2 [9] were 2.7±0.6 fold and 48±14 fold, respectively.
Turning to `CSc1ccc2c(c1)C(N1CCN(C)CC1)Cc1ccccc1S2.O=C(O)/C=C\C(=O)O` (stereo not shown) [Methiothepin, methiothepin maleate], the IC50 in [2] (read-out: IC50 value (at 100 nM dopamine for hD1), 100 nM dopamine, cAMP accumulation) stood at 80 ± 11 nM; at AaDOP2 [4] (read-out: IC50 value (at 3 µM dopamine for AaDOP2), 3 µM dopamine, cAMP accumulation), 14 ± 5.1 nM. Moreover, the “Relative fold selectivity for AaDOP2 vs. hD1” value at AaDOP2 [4] is recorded as 5.7 fold.
As to `Oc1cc2c(c(Cl)c1O)CCNCC2c1ccccc1` (stereo not shown) [SKF 81297], the EC50 was 24 ± 7 nM at AaDOP1 [6] (HEK293 cells stably expressing CRELuc reporter and AaDOP1, read-out: EC50 values AaDOP1); no less than 10000 nM on AaDOP2 [7] (read-out: EC50 values AaDOP2, HEK293 cells stably expressing CRELuc reporter and AaDOP2, ≥10 µM considered lacking intrinsic activity).
